Legend:
[1] = system: human iPSC-derived cardiomyocytes; assay: Ca2+ flux assay; assay type: cell-based; details: for critical endpoint (most sensitive phenotype): phenotype with lowest POD for the population median
[2] = system: human iPSC-derived cardiomyocytes; details: standard donor 1434 compared to the other 4 donors; ref [36]; cited from earlier work

## CC/C(=C(\c1ccccc1)c1ccc(OCCN(C)C)cc1)c1ccccc1 [tamoxifen]
[1]
  critical endpoint (most sensitive phenotype): did not exhibit decay-rise ratio as the critical endpoint

## COc1cc(N)c(Cl)cc1C(=O)NC1CCN(CCCOc2ccc(F)cc2)CC1OC (centres unmarked) [Cisapride, cisapride]
[2]
  efficacy (Emax, maximum increase in decay-rise ratio): greatest efficacy

## CC(C)NCC(O)c1ccc(O)c(O)c1 (centres unmarked) [Isoproterenol]
[1]; 10 μM, 90 min exposure, 5 donors, response vs vehicle control
  effect on beat rate ([+] chronotropy positive control): expected effects on beat rate

## CC(C)NCC(O)COc1cccc2ccccc12 (centres unmarked) [propranolol]
[1]; 0.5 μM, 90 min exposure, 5 donors, response vs vehicle control
  effect on beat rate ([-] chronotropy positive control): expected effects on beat rate

## COCCc1ccc(OCC(O)CNC(C)C)cc1 (centres unmarked) [metoprolol]
[1]
  critical endpoint (most sensitive phenotype): did not exhibit decay-rise ratio as the critical endpoint

Reference: publication PMC8762671 (Chemical research in toxicology, 2021)
